PMC11843613, “Further Optimization of the mGlu1 PAM VU6024578/BI02982816: Discovery and Characterization of VU6033685” (ACS Chemical Neuroscience, 2025)
Several values for one entry are separate records, joined by “and”; a condition that tells them apart may be missing. Equal values may be shown once. Read-outs that look alike come from different tables or passages of the source.

Columns and labels:
[1] = tested on: amphetamine-induced hyperlocomotion in rats; assay: Rat amphetamine-induced hyperlocomotion (AHL) with satellite PK; type: in vivo
Method: (§1) mode (5.0 kV spray voltage). The calibration curves were constructed in blank plasma. All data were analyzed using AB Sciex Analyst software v1.5.1.
(§2) All animal study procedures were approved by the Institutional Animal Care and Use Committee and were conducted in accordance with the National Institutes of Health regulations of animal care covered in Principles of Laboratory Animal Care (National Institutes of Health). […]
(§3) GraphPad Prism (version 4.03, GraphPad, La Jolla, CA).
(§4) Amphetamine-induced hyperlocomotion (rat)
(§5) Adult male Sprague-Dawley rats placed into the activity chambers (Med Associates). Thirty minutes after placement in the chambers, the rats were administered VU6024578 (1-10 mg/kg p.o..) or vehicle. Sixty minutes later the rats were injected with amphetamine (0.75 mg/kg s.c. 1 ml/kg) or vehicle (saline) and placed back in the activity chambers for 90 minutes. The data for the studies were analyzed by a between-group 2 way analysis of variance for compound dose and time. Each dose group was compared with the vehicle control group. The calculations were performed and graphed using GraphPad Prism (version 4.03, GraphPad, La Jolla, CA). The AUC was analyzed by a 1-way ANOVA with a Dunnett’s post hoc test. […]

[2] = as above; type: in vivo; conditions: male, Sprague-Dawley, brain (unbound); for concentration at 1.25 h: sample @ 1.25 hr
Method: as §1, §2, §3, §4, §5

[3] = Dose escalation PO PK study in mice; type: in vivo, mouse
dog mGlu1 = dog mGlu1 (Canis lupus familiaris, UniProt A0A8I3NTE8); assay: mGlu1 PAM functional assay (dog); type: cell-based
[4] = Plasma protein binding (dog); type: in vitro ADME; conditions: pH 7.4, read-out: fu plasma (d)
Method: page 13: at half log concentrations in DMSO were further diluted in assay buffer. The compounds or DMSO vehicle were added to cells and incubated for 2.5 min and an EC20 concentration of glutamate was added and incubated for 1 min. An ECmax concentration of glutamate was also added to cells that were incubated with DMSO vehicle to accurately calculate the EC20 calcium response. Data were normalized by subtracting the basal florescent peak before EC20 agonist addition from the maximal peak elicited by EC20 agonist and PAMs. Using GraphPad Prism 5.0, the concentration response curves were generated and the potencies of the mGlu1 PAMs were determined. DMPK Methods Plasma protein binding: The protein binding of each compound was determined in plasma via equilibrium dialysis employing RED Plates (ThermoFisher Scientific, Rochester, NY). Plasma was added to the 96 well plate containing test compound and mixed thoroughly for a final concentration of 5 µM. Subsequently, an aliquot of the plasma-compound mixture was transferred to the cis chamber (red) of the RED plate, with an phosphate buffer (25 mM, pH 7.4) in the trans chamber. The RED plate was sealed and incubated for 4 hours at 37°C with shaking. […] The in vitro half-life (T 1/2, min, Eq. 1), intrinsic clearance (CLint, mL/min/kg, Eq. 2) and subsequent predicted hepatic clearance (CLhep, mL/min/kg, Eq. 3) was determined S13

striatal DA release = assay: Electrically evoked striatal DA release in brain slices (fast scanning cyclic voltammetry); conditions: 10 μM PAM + 10 μM DHPG, mouse slices, 1 μM DHβE present
Method: into the home cage. The arena is then cleaned with 70% ethanol in between animals. The day of the test the animals are habituated to the dosing room for 2 hours. The animals were administered VU6024578 (1-10 mg/kg p.o.) or vehicle (10% Tween 80) and were placed back into their homecage for 60 min. The animals were then injected with MK-801 (0.075 mg/kg 1 ml/kg s.c.) and placed back in the homecage for 30 min. The animals are then placed into the arena with two identical familiar objects for ten minutes and then placed back into the home cage. The animals are then placed back into the arena with one of the familiar objects replaced with a novel object at 120 min after the familiar object exposure. The activity of the animals are recorded and the time spent exploring each of the objects is scored by a blinded observer. Recognition index is determined by subtracting […] divided by total time spent exploring.
Brain Slice Preparation and Fast Scanning Cyclic Voltammetry: […]
Electrically-evoked dopamine overflow was monitored with carbon fiber electrodes as previously reported (Foster et al. 2014). […]

Sequence of dog mGlu1 (A0A8I3NTE8 30-1195): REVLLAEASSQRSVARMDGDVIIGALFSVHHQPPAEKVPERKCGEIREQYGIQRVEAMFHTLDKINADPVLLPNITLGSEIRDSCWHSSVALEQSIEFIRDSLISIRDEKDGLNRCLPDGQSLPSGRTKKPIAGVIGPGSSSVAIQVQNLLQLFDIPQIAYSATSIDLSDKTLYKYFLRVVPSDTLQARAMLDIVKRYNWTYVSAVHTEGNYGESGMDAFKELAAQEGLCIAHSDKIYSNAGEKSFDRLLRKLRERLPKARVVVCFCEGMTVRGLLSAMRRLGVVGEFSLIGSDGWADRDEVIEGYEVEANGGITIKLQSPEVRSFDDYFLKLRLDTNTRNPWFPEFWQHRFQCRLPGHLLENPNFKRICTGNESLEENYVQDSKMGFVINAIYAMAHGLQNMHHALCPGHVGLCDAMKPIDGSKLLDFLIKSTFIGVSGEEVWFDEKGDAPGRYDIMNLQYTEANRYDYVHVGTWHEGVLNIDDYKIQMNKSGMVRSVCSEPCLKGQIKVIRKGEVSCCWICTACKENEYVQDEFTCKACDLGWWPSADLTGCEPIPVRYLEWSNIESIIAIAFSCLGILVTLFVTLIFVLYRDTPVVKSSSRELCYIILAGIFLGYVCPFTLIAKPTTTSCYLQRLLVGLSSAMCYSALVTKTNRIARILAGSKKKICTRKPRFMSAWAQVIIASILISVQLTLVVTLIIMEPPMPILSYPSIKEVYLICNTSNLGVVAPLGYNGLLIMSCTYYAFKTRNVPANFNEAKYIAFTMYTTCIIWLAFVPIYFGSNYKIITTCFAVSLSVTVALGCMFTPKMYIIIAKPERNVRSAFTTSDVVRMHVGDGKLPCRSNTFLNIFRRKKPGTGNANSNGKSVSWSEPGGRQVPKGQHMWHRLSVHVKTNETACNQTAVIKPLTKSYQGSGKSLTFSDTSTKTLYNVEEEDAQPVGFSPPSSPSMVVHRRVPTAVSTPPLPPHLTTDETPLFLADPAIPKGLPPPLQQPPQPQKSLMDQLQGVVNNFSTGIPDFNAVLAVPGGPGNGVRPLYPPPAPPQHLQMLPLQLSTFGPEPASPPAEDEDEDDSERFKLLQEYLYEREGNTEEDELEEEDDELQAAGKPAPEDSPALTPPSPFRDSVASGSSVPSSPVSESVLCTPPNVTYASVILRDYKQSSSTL

In the case of `Cc1nc(C2CC2)ccc1CNC(=O)c1cc(-n2cccn2)ccc1Cl` [compound 8], the “AHL efficacy compared with positive control 3” value ([1]; rat) is reported as “comparable efficacy to the standard 3”, the “minimum effective dose (MED) in AHL” value ([1]; rat PO) is reported as 10 mg/kg and the “unbound brain concentration as fold of in vitro rat mGlu1 EC50 at efficacy in AHL” value ([1]; rat, 10 mg/kg MED, 10 mg/kg) is reported as ~0.74 fold and ~0.7 fold. The “reversal of amphetamine-induced hyperlocomotion” value ([1]; rat, oral administration, amphetamine 0.75 mg/kg SC) was “dose-dependently reversed”, the concentration at 1.25 h ([2]; rat PO 1 mg/kg, read-out: Brain Unbound at 1 mg/kg) was 16.1 nM and the concentration at 1.25 h ([2]; rat PO 3 mg/kg, read-out: Brain Unbound at 3 mg/kg) was 35.4 nM. For the same molecule, the concentration at 2.5 h ([2]; rat PO 10 mg/kg, satellite PK, 2.5 h end of study (picture: sample @ 1.25 hr), read-out: free (unbound) brain concentration at 10 mg/kg) was 79.8 nM, the “observations at >24-fold EC50 free brain” value ([3]; mouse PO) was “without any observed AEs” and the “free brain concentration as fold of mouse EC50 at 500 mg/kg” value ([3]; mouse PO 500 mg/kg) was ~90 fold. For the same molecule, the “observations at 500 mg/kg” value ([3]; mouse PO 500 mg/kg) was “all animals displayed uncoordinated movements and were cold to the touch”, the “free brain concentration reached without AEs” value ([3]; mouse PO dose escalation) was ~1250 nM and the “free brain concentration as fold of mouse EC50 reached without AEs” value ([3]; mouse PO dose escalation (50, 150, 500 mg/kg)) was > 24 fold. It also gave an EC50 (dog mGlu1) of 0.093 µM, an Emax (dog mGlu1; read-out: dog mGlu1 Glu Max) of 79% and a fraction unbound at 4 h, 5 µM [4] of 0.099. The “effect on striatal DA release when coapplied with subthreshold DHPG” value (striatal DA release) was “robust inhibition of DA release”.
